Experimental data published in patent US8927498B2, “Compositions and methods useful in enhancement of memory” (The Translational Genomics Research Institute, priority 2010, dated 2015).
“Also recorded” adds a separate entry of the source.

How the values were obtained:
[1] = test system: FILIP1; test: RT-PCR validation of FILIP1 (normalized to GAPDH); format: in vivo, rat; conditions: n = 9; vehicle 1.28
Source text: Following sacrifice, the left hippocampus was utilized for genome-wide expression profiling. […] These included Adcyap1 with fold change (FC) of 1.5, and p=0.029, Tiam1 with FC of −1.5 and p=0.028, and Filip1 with FC of −1.75 and p=0.032 (Table 1). The RT-PCR validation of the fold change of FILIP1 and Tiam1 is shown in Table 2 and Table 3, respectively.

[2] = test system: seventeen-month-old Fischer-344 male rats (aged rat model of cognitive decline); test: water-escape plus maze, spatial working memory; format: in vivo; conditions: 17-month-old Fischer-344 male rats, 1 mg/kg/day, vs vehicle (saline), n=9
Protocol: In one embodiment of the present disclosed invention, the transduction complex comprises a fusion peptide including a TAT protein transduction domain and residues surrounding two known serine phosphorylation targets (Ser159 and Ser163) within MARCKS (SEQ ID NO: 3). The compound was administered to seventeen-month-old rats and behavioral spatial working memory of the rats was assessed by behavior testing. […] Such assays include, without limitation, the Morris water maze and the radial arm water maze, plus maze. For example, when employing the Morris water maze, a rat is trained to swim to a submerged platform. The rat can then be treated with an agent at a particular dose for a particular duration. Following treatment, the mean escape latency (i.e., time to find platform) is measured and compared to the mean escape latency of a control. […] Following treatment, the ability of the rat to remember a newly-learned path is measured and compared to that of a control. […] In the water Plus Maze test, the variables measured include the percentage of time spent in the open and closed areas of the maze, the latency to leave the central platform, the total number of crossings between the various open and closed areas of the maze, and the number of crossings into the open areas of the maze divided by the total number of crossings. […]

SEQ ID NO: 1: fusion peptide including a TAT protein transduction domain and residues surrounding two known serine phosphorylation targets (Ser159 and Ser163) within MARCKS (YGRKKRRQRRRCKRFSFKKSFKLSGFSFKK; TAT MARCKS fusion)
RT-PCR FILIP1 Average (normalized to GAPDH) [1]: 1.20
working memory performance in water-escape plus maze [2]: acquired the plus maze task at a faster rate; also recorded: enhanced working memory performance
